Data: patent US10695282B2, “Functionalized transition metal dichalcogenides and composition for antioxidation containing the same” (AMOREPACIFIC CORPORATION, priority 2017, dated 2020)

Columns and labels:
[1] = ABTS assay, antioxidant activity of TMDs functionalized in aqueous solution; assay type: biochemical; settings: TMDs functionalized with PCL-b-PEO in aqueous solution; absorbance change at 734 nm after 12 hours; FIG. 9A; read-out: IC50 (ABTS radical scavenging)
Method: Specifically, the antioxidant activity of four types of TMDs (MoS2, WS2, MoSe2, and WSe2) functionalized with an amphiphilic block polymer compound in an aqueous solution and Trolox (vitamin E) were measured by an ABTS (2,2′-azino-bis-(3-ethylbenzothiazoline-6-sulfonic acid)) assay.
Specifically, 7 mM 2,2′-azino-bis-(3-ethylbenzothiazoline-6-sulfonic acid) (ABTS) and 2.45 mM potassium persulfate were mixed to make the final concentration and left in a dark place at room temperature for 24 hours. Then, the mixture was diluted with distilled water so that the absorbance value at 734 nm was […]. 100 μl of the sample of each concentration was added to 100 μl of the diluted ABTS radical solution, followed by mixing. After 12 hours, the change of absorbance was measured. The same amount of Trolox as a standard material was added for measurement.

[2] = Photostability of antioxidant activity under solar simulator (ABTS assay); assay type: physicochemical; settings: after 3 hours, FIG. 9B

- IC50 [1]: 11.7 µM
- antioxidant activity remaining under light [2]: 50%
Compound: Cc1c(C)c2c(c(C)c1O)CCC(C)(C(=O)O)O2 (centres unmarked) [Trolox]
